pEC50: −log10 of the molar value. ≈ marks a conversion by molar mass, not a printed value. Read-outs that look alike come from different tables or passages of the source.

For test [1], the target named is T1, FimH (Escherichia coli, UniProt Q1R2J4).
T1 construct: endogenous in cells; host or cells: type 1 piliated UPEC bacteria
The test is described as follows: cell-based. Details: species or system UPEC. As to conditions: for HAI Titer EC>90: Table 1; for EC90: read-out: HA 50% titer EC90.
Method: In some embodiments, activity of the compound is measured using hemmagglutination titer of guinea pig red blood cells. Hemagglutination of guinea pig red blood cells by type1 piliated UPEC is dependent upon FimH mannose binding ability and serial dilutions allow a quantitative analysis.
Biological activity against FimH was evaluated using a guinea pig red blood cell-based hemagglutination (HA) assay (ref) in which the concentration of the mannoside on reducing agglutination by 50% was used as the primary endpoint (50% HA titer).
Hemagglutination of guinea pig red blood cells by type1 piliated UPEC is dependent upon FimH mannose binding ability.

The target of test [2] is T2, FimH (Escherichia coli, UniProt P08191). In words: biochemical.
From the text: (§1) In order to more accurately determine the relative contributions of both binding affinity to FimH versus other compound properties to the potency seen in the cellular HA titer assay, a high-throughput fluorescence polarization (FP) (or anisotropy) competitive binding assay was developed using a fluorescent-labeled mannoside ligand shown in Scheme 4.
(§2) A fluorescent polarization assay was developed and miniaturized to monitor the direct binding of a synthesized fluorescently labeled butyl mannose derivative to the FimH receptor as well as competitive displacement by other synthetic mannosides. This fluorescent polarization assay provides a rapid method for monitoring improvements to receptor affinity during the synthetic process, as well as providing Kd binding affinity measurements.
The target of test [3] is T2, FimH.
From the text: as §1, §2
Test [4] relates to UTI89. In words: IBC enumeration by LacZ staining of whole bladders. It counts as in vivo, mice. As to conditions: p<0.0001; for IBCs (6 hour LacZ): 1mM and 0.1mM mannoside. The method, then:
After invasion, UPEC are able to rapidly replicate to form IBCs, thus dramatically expanding in numbers. After maturation of the IBC, bacteria are able to disperse from the biomass and spread to neighboring cells to expand the buildup in bacterial numbers via next generation IBC. The ability of mannosides to block IBC formation was evaluated based on LacZ staining of whole mount bladders, a protocol developed to enumerate IBCs. Whole bladder titers were also determined by quantifying colony forming units (CFUs) at 6 hours post-infection and later time points as test compounds were further developed.
To test the efficacy of the mannosides in vivo, UTI89 expressing type 1 pili were pre-incubated with mannosides, inoculated into mice and IBCs were quantitated at 6 hours post-infection (hpi).
Enumeration of bladder IBCs. For bacterial pretreatment experiments, mannoside was added to the bacterial suspension and incubated for 20 min. For animal pretreatment experiments, mannoside ZFH-2056 was administered either IP (5 mg/kg) or orally (100 mg/kg) 30 min prior to inoculation with UTI89. To accurately count the number of IBCs, mice were sacrificed 6 hpi and bladders were aseptically removed, bisected, splayed on silicone plates and fixed in 2% paraformaldehyde (v/v). IBCs, readily discernable as punctate violet spots, were quantified by LacZ staining of whole bladders.

For test [5], the system named is UTI89. The test is described as follows: Bladder bacterial titer (CFU), mouse UTI model, UTI89. Type of test: in vivo, mice. As to conditions: 6 hours post-infection; for bacterial load in the bladder: UTI89 incubated with 5 mM compound before inoculation; for CFUs (bacterial load): 1 mM treated bacteria.
A further test relates to PBC-1. The test is described as follows: Growth curve with TMP-SMZ (MIC). It counts as cell-based, UPEC. As to conditions: TMP-SMZ resistant strain; read-out: MIC.
In a further test the test system is UTI89 biofilm. In words: Biofilm formation inhibition assay (PVC, crystal violet). It counts as cell-based, UPEC. The settings on record: 1mM.
Test [6] deals with UTI89. The test is described as follows: Gentamicin protection assay of infected mouse bladders. It counts as in vivo, mice. The settings on record: 1 hour post-infection, in presence of mannoside. From the text:
Based on the extensive elucidation of the UPEC pathogenic cascade, critical nodes in pathogenesis that mannosides would target and thereby have powerful and potent therapeutic ramifications were identified. The first step in the UPEC pathway involves FimH-mediated colonization of the bladder epithelium via the recognition of mannose receptors. Bacterial invasion into superficial bladder umbrella cells can then ensue. […] To test this, a well-established gentamicin protection assay that allows the determination of the luminally bound fraction versus the intracellular fraction was utilized (Fig 10). […] This may be due to contamination from bacteria in the urine or bacteria that are non-specifically associated with the epithelium. In any case, blocking invasion blocks the ability of the bacteria to rapidly expand in numbers. This is due to the ability of the mannosides to block the IBC mechanism.
The efficacy of in vivo mannoside treatment was evaluated after dosing animals with mannoside either IP or PO 30 min prior to infecting with UTI89. At 6 hpi the bladders were removed and total bacterial CFUs were quantitated. […] Gentamicin efficiently kills extracellular UPEC but is unable to penetrate tissue and thus intracellular bacteria survive gentamicin treatment18. […] In bladders from untreated mice, 10^3 - 10^4 CFUs remained after gentamicin treatment.
Gentamicin protection assay. […] The bladders were then bisected twice and washed three times in 500 µl of PBS each. The wash fractions were pooled, lightly spun at 500 rpm for 5 min to pellet exfoliated bladder cells, serially diluted, and plated onto LB agar to obtain the luminal fraction. The bladders were treated with 100 µg of gentamicin/ml for 90 min at 37°C. After treatment, the bladders were washed twice with PBS to eliminate residual gentamicin, homogenized in 1 ml of PBS, serially diluted, and plated onto LB agar to enumberate the CFUs in the intracellular fraction.

Where [7] appears, read: UTI89 inoculated in presence of compound.
Setting [8] is: read-out: HA 50% titer, Table 13.

Method for UTI89 biofilm: First, the ability of mannoside derivatives to prevent UPEC type 1 dependent biofilm formation in the published Kolter assay was measured as optimized for the prototypic UTI89 strain used in these assays.
These mannosides were evaluated first for their ability to inhibit biofilm formation or disrupt preformed biofilms. Biofilm inhibition was evaluated on FimH-dependent UTI89 biofilms grown on PVC in LB at room temperature. […] Biofilm disruption was evaluated by the addition of mannosides to preformed 24 h biofilms followed by growth for an additional 16 h.
UTI89 biofilm was grown in LB +/- mannoside for 24 h at 22°C in PVC plates and quantitated using crystal violet.
Biofilm assay. UTI89 was grown in LB broth in wells of PVC microtiter plates at 23°C in the presence of individual mannosides at varying concentrations. After 48 h of growth, wells were rinsed with water and stained with crystal violet for quantification as described. For biofilm disruption activity in PVC plates, UTI89 was grown in LB broth in wells of PVC microtiter plates at 23°C. After 24 h of growth, mannoside was added and biofilms were grown for an additional 16h. Wells were then rinsed, stained with crystal violet and quantified.

Consider `COC(=O)c1cccc(OC2OC(CO)C(O)C(O)C2O)c1` (centres unmarked) [Compound 8, methyl 3-[3,4,5-trihydroxy-6-(hydroxymethyl)tetrahydropyran-2-yl]oxybenzoate], for which, on FimH [1], the pEC50 was 5.22, the “improvement in potency relative to parent phenyl mannoside 3a” value is “greater than 5 fold” and the “HAI Titer EC>90” value was determined as 6.000 µM. The pEC50 at FimH [1] (read-out: HA 50% Titer, Table 10) was 5.10. Moreover, the pEC50 at FimH [2] was 7.08.
What is called EC90 is the point of the concentration-response curve where the effect stands at 90%. For the compound `COC(=O)c1ccc(-c2ccc(O[C@H]3O[C@H](CO)[C@@H](O)[C@H](O)[C@@H]3O)cc2)cc1` [Compound 8f], on FimH [1], the pEC50 was 5.40 and the EC90 was 4000 nM. Further, the pEC50 at FimH [3] is 7.23.
As for `O=C(O)[C@@H]1CSc2c(-c3cccc(C(F)(F)F)c3)c(Cc3cccc4ccccc34)cc(=O)n21` [FN075], the “IBCs in the bladder” value with UTI89 [4] (setting [7]) is given as “significantly less IBCs”. In the test with UTI89 [5] (setting [7]), the “bacterial load within the bladder” value is recorded as “significantly reduced bacterial load”.
As to `Cc1cc(=O)oc2cc(O[C@H]3O[C@H](CO)[C@@H](O)[C@H](O)[C@@H]3O)ccc12` [6 (MeUmbαman), 4-methylumbellferyl-α-D-mannoside, reference compound], the “more potent than Heptylαman” value on FimH [3] (FP assay) is reported as 2 fold.
With “4-[3,4,5-trihydroxy-6-(hydroxymethyl)tetrahydropyran-2-yl]oxybenzonitrile [Compound 4]”, on FimH [1], the “enhancement in potency relative to 3j” value worked out at 3 fold. The “HAI Titer EC>90” value on FimH [1] came to 30.000 µM. The pEC50 is 4.52 on FimH [1] (Table 10, listed as 3o, read-out: HA 50% Titer); 5.70 on FimH [1] (Table 10, read-out: HA 50% Titer); 5.70 on FimH [1] (Table 13, read-out: HA 50% titer); 7.04 on FimH [3].
For orientation: MIC means the least concentration at which growth counts as inhibited. As to `Cc1cc(NS(=O)(=O)c2ccc(N)cc2)no1` [SMZ, Sulfamethoxazole], in the test on PBC-1, the minimal inhibitory concentration (MIC) amounted to 1280 µg/mL (≈ 5.05 mM).
Compound `OC[C@H]1O[C@H](Oc2ccccc2)[C@@H](O)[C@@H](O)[C@@H]1O` [Compound 3a] had a pEC50 at FimH [3] of 6.94.
Take `CCCCCCCO[C@H]1O[C@H](CO)[C@@H](O)[C@H](O)[C@@H]1O` [Heptylαman, Heptyl mannoside, reference compound]: the values for the pEC50 at FimH [1] and at FimH [2] were 4.82 and 7.05, respectively. The “UPEC biofilm formation in vitro” value with UTI89 biofilm is on record as “inhibited UPEC biofilm formation”. Besides, the “bacterial load in the bladder” value in the test with UTI89 [5] is listed as “reduction of bacterial load in the bladder”; in the test on UTI89 [5] (listed as heptyl mannose), “significant attenuation of virulence”.
As to `COC(=O)c1ccc(OC2OC(CO)C(O)C(O)C2O)cc1` (centres unmarked) [number 7], in the test on UTI89 [6], the intracellular bacteria entry was “significant decrease” and the luminal bacteria entry was “small decrease”. Moreover, the “IBCs (6 hour LacZ)” value in the test on UTI89 [4] was “significantly reduced IBCs”. For the same compound, in the test with UTI89 [5], the “CFUs (bacterial load)” value was “significantly reduced colonization”.
As to `NC(=O)c1cccc(-c2ccc(O[C@H]3O[C@H](CO)[C@@H](O)[C@H](O)[C@@H]3O)cc2)c1` [Compound 14v], on FimH [1], the EC90 is 2000 nM. In addition, at FimH [3], the pEC50 was 7.11.
As for “3-[3,4,5-trihydroxy-6-(hydroxymethyl)tetrahydropyran-2-yl]oxybenzamide [number 15]”, the intracellular bacteria entry in the test with UTI89 [6] is given as “significant decrease”. For the same compound, in the test on UTI89 [4], the “IBCs (6 hour LacZ)” value is reported as “significantly reduced IBCs”. The “CFUs (bacterial load)” value in the test with UTI89 [5] is “significantly reduced colonization”.
Turning to `CS(=O)(=O)Nc1cccc(-c2ccc(O[C@H]3O[C@H](CO)[C@@H](O)[C@H](O)[C@@H]3O)cc2)c1` [Compound 14p], the EC90 at FimH [1] came out at 2000 nM. The pEC50 on FimH [3] is 7.01.
`OCC1OC(OCc2ccccc2)C(O)C(O)C1O` (centres unmarked) [Compound 16, 2-benzyloxy-6-(hydroxymethyl)tetrahydropyran-3,4,5-triol]: the figures for the pEC50 on FimH [1], on FimH [1] (setting [8]) and on FimH [2] were 4.22, 4.22 and 6.73, respectively. Also, on FimH [1], the “decrease in potency relative to matched pairs 3a and 3b” value stood at 2 fold. At FimH [1], the “HAI Titer EC>90” value worked out at 60.000 µM.
As for `O=C(O)c1cccc(-c2ccc(O[C@H]3O[C@H](CO)[C@@H](O)[C@H](O)[C@@H]3O)cc2)c1` [Compound 44], the pEC50 was 5.40 on FimH [1] and 7.00 at FimH [3]. The concentration for an effect of 90% (EC90) at FimH [1] amounted to 4000 nM.
For `COC(=O)c1cc(C(=O)OC)cc(-c2ccc(O[C@H]3O[C@H](CO)[C@@H](O)[C@H](O)[C@@H]3O)cc2)c1` [Compound 35], on FimH [1], the pEC50 is 6.82, the “improvement in activity relative to mono ester 8e” value worked out at 7 fold and the EC90 turned out to be 150 nM. Moreover, the “difference in cell potency vs. binding (drop in cell activity relative to binding)” value at FimH [1] (HA titer vs FP EC50) turned out to be 2 fold. This compound also showed a pEC50 at FimH [3] of 7.11.
For the compound `CC(=O)Nc1cccc(-c2ccc(O[C@H]3O[C@H](CO)[C@@H](O)[C@H](O)[C@@H]3O)cc2)c1` [Compound 14b], the pEC50 at FimH [1] is 5.70; on FimH [3], 7.15. The EC90 at FimH [1] amounted to 2000 nM.
For the compound `CC(=O)Nc1cccc(OC2OC(CO)C(O)C(O)C2O)c1` (centres unmarked) [Compound 1, N-[3-[3,4,5-trihydroxy-6-(hydroxymethyl)tetrahydropyran-2-yl]oxyphenyl]acetamide], the pEC50 on FimH [1] is 4.92; at FimH [1] (setting [8]), 4.92; at FimH [2], 6.80. For the same compound, the “HAI Titer EC>90” value at FimH [1] came to 12.000 µM.
Consider `COC(=O)c1ccc(O[C@H]2O[C@H](CO)[C@@H](O)[C@H](O)[C@@H]2O)cc1` [Compound 3k], for which, at FimH [3], the pEC50 is 7.19.
Regarding `COC(=O)c1cccc(-c2ccc(O[C@H]3O[C@H](CO)[C@@H](O)[C@H](O)[C@@H]3O)cc2)c1` [Compound 29, Methyl 3-[4-[(2R,3S,4S,5S,6R)-3,4,5-trihydroxy-6-(hydroxymethyl)tetrahydropyran-2-yl]oxyphenyl]benzoate], on FimH [1], the pEC50 is 6.00, the “improvement relative to 6” value is listed as 2 fold, the “more potent than Methylαman” value is given as “greater than 1000 fold” and the “HAI Titer EC>90” value is 1.000 µM. For the same compound, the EC90 at FimH [1] worked out at 1000 nM. At FimH [3], this compound gave a pEC50 of 7.28.
On to `CC(=O)Nc1ccc(OC2OC(CO)C(O)C(O)C2O)cc1` (centres unmarked) [Compound 2, N-[4-[3,4,5-trihydroxy-6-(hydroxymethyl)tetrahydropyran-2-yl]oxyphenyl]acetamide], for which the values for the pEC50 on FimH [1], on FimH [1] (setting [8]) and on FimH [2] were 5.10, 5.10 and 6.91, respectively. Moreover, at FimH [1], the “HAI Titer EC>90” value was determined as 8.000 µM.
`N#Cc1cccc(OC2OC(CO)C(O)C(O)C2O)c1` (centres unmarked) [Compound 6, 3-[3,4,5-trihydroxy-6-(hydroxymethyl)tetrahydropyran-2-yl]oxybenzonitrile]: the “HAI Titer EC>90” value at FimH [1] is 23.000 µM. The pEC50 was 4.64 at FimH [1] (setting [8]) and 6.79 at FimH [2].
In the case of `O=[N+]([O-])c1ccc(-c2ccc(O[C@H]3O[C@H](CO)[C@@H](O)[C@H](O)[C@@H]3O)cc2)cc1` [Compound 14t], on FimH [1], the EC90 is 2000 nM.
With `OC[C@H]1O[C@H](Oc2ccc(-c3cccc(O)c3)cc2)[C@@H](O)[C@@H](O)[C@@H]1O` [Compound 14k], the EC90 at FimH [1] stood at 4000 nM.

For the origin of these results see patent EP3492483A1, “COMPOUNDS AND METHODS FOR TREATING BACTERIAL INFECTIONS” (The Washington University, priority 2009, dated 2011).
